Laboratory results taken from PMC3700072, “Synthesis, Anti-Inflammatory, and Ulcerogenicity Studies of Novel Substituted and Fused Pyrazolo[3,4-d]pyrimidin-4-ones” (Scientia Pharmaceutica, 2013).

How the values were obtained:
[1] = system: carrageenan-induced rat paw edema; experiment: carrageenan-induced rat paw edema test; type: in vivo; design: Mean increase in edema weight ± SEM: unit not given here; conditions: rats, 10 mg/kg intraperitoneally, 4 h after carrageenan; for inhibition in vivo at 10 mg/kg / change in vivo at 10 mg/kg: Rattus norvegicus, ip; for inhibition in vivo at 10 mg/kg: 4 h, read-out: %Inhibition of Paw edema from control group (edema reduction); for change in vivo at 10 mg/kg / Mean increase in edema weight ± SEM: N = 6; for change in vivo at 10 mg/kg: read-out: Mean % increase in edema weight ± SEM; for % Activity relative to indomethacine: indomethacin = 100
Procedure: The in vivo anti-inflammatory effects of the newly synthesized pyrazolopyrimidine derivatives were assessed by utilizing the functional model of carrageenan-induced rat paw edema using indomethacin as the reference drug. Mean changes and the percent increase in paw edema weight of animals pretreated with the tested compounds after 4 h from the induction of inflammation were measured, together with the percent inhibition of induced rat paw edema by the tested compounds. The anti-inflammatory activity (relative potency) of the tested compounds relative to that of indomethacin was also calculated (Table 1) (Fig. 2).
The in vivo carrageenan-induced rat paw edema model of inflammation was used to evaluate the anti-inflammatory properties of the newly synthesized compounds according to the previously reported Winter et al. method.
Adult male albino rats weighing 100–120 g (obtained from the animal house of the department of Physiology, Faculty of Medicine, Alexandria University) were used throughout the work. Animals were randomly divided into groups of six rats each. They were kept in an animal house under standard conditions of light and temperature with free access to food and water ad libitum and allowed to be accustomed to their environment for two days before testing.
Indomethacin, used as a reference standard (Khahira for Pharmaceutical and Chemical Industry, Cairo, Egypt), and the test compounds were dissolved in DMSO and were injected intraperitoneally at a dose level of 10 mg/kg body weight. Control animals, on the other hand, were intraperitoneally injected with appropriate volume of DMSO only. After one hour of the above treatment, an inflammatory edema in the right hind paw of all animals was induced by subcutaneous injection of 0.05 ml of freshly prepared solution of 1% carrageenan (λ-Carrageenan Sigma–Aldrich Corp. St. Louis, MO, USA) in sterile normal saline (0.9%), into the subplantar tissue of the paw. An equal volume of saline was injected to the left hind paw and served as internal control for the degree of inflammation in the right hind paw.
Four hours after carrageenan injection, animals were decapitated and both the right and left hind paws were excised at a standard point and weighed. The difference in weight from edema between right and left paws was taken as a measure of the degree of inflammation for each animal. The mean increase in weight of the carrageenan-injected paw over the other paw in each group was measured and the percent increase of edema was calculated. The anti-inflammatory efficacy of the tested compounds was assessed by comparing the change in paw weight in the treated animals with that in control animals (treated with DMSO only) and expressed as a percent inhibition of the edema (percent protection against inflammation), calculated according to the following equation: % Inhibition of edema=(1-Wt/Wc)×100 where Wt is the mean increase in paw weight in rats treated with the test compounds and Wc is the mean increase in paw weight in the control group. The anti-inflammatory activity of the test compounds relative to that of indomethacin was also determined (Table 2).
In the anti-inflammatory study, data obtained were expressed as the mean ± standard error (SEM). Statistical significance was determined by comparing the values of the test compounds and the standard with those obtained from the control group of animals using One-way ANOVA with Dunnett’s post-test using the GraphPad Prism version 3.00 for Windows (GraphPad Software, San Diego California USA, www.graphpad.com). The difference in results was considered significant if P < 0.001.

[2] = system: gastric mucosa of rats; experiment: gastric ulcerogenic effect (Meshali's method, ulcer index by Robert's method); type: in vivo, rat; design: key to Ulcer index: ulcer index = %incidence/10 + avg no. of ulcers + avg severity (0–4)
Procedure: The ulcer index was calculated according to Robert’s method.
Adult male albino rats weighing between 100 and 120 g were used. Animals were divided into groups of five animals each. Rats were fasted 20 h before drug administration. Water was given ad libitum. The control group received the vehicle (1% gum acacia) orally. Other groups received indomethacin or test compounds orally in a dose of 10 mg/kg body weight suspended in 1% gum acacia. Rats were fasted for 2 h, allowed to feed for 2 h, then fasted for another 20 h. Rats were given another two doses on the second and third days. On the fourth day, rats were sacrificed by diethyl ether; the stomach of each rat was removed, opened along the greater curvature, and rinsed with cold 0.9% saline. The stomach was stretched, by pins, on a corkboard and inspected with a 3x magnifying lens for any evidence of mucosal damage. The ulcer index was calculated according to Robert’s method. The number of mucosal damage (red spots) was counted and their severity (ulcerogenic severity) was graded from 0 to 4 according to the following score assignment:
The following figures were calculated: • –– % Incidence/10 = [number of rats showing ulcer of any grade divided by total number of rats in the group × 100]/10. • –– Average number of ulcers: number of ulcers in the group/total number of rats in the group. • –– Average severity: Σ [each ulcer multiplied by its score of severity]/number of ulcers in the group. • Ulcer index = the sum of the 3 figures. • Results are tabulated in Table 2.

| SMILES | inhibition in vivo at 10 mg/kg [1] | change in vivo at 10 mg/kg [1] | Mean increase in edema weight ± SEM [1] | % Activity relative to indomethacine [1] | melting point | % ulceration in the population of test animals ([2]; oral 10 mg/kg) | Average No. of ulcer ([2]; oral 10 mg/kg on three days) | % Incidence/10 ([2]; oral 10 mg/kg on three days, 5 animals per group) | % Ulcerogenicity relative to indomethacin ([2]; oral 10 mg/kg on three days, indomethacin = 100) | Average severity ([2]; oral 10 mg/kg on three days, score 0 to 4) | Ulcer index ([2]; oral 10 mg/kg on three days, sum of the 3 figures) |
| --- | --- | --- | --- | --- | --- | --- | --- | --- | --- | --- | --- |
| Cc1nc2c(cnn2-c2ccccc2)c(=O)n1N [Compound 5, 5-Amino-6-methyl-1-phenyl-1,5-dihydro-4H-pyrazolo[3,4-d]pyrimidin-4-one] | 33.1% | 19.8 ± 1.6% | 1.05 ± 0.089 | 48.60% |  |  |  |  |  |  |  |
| Cc1nc2c(cnn2-c2ccccc2)c(=O)n1N=Cc1ccccc1 [Compound 7a, 5-(Benzylideneamino)-6-methyl-1-phenyl-1,5-dihydro-4H-pyrazolo[3,4-d]pyrimidin-4-one] | 34.4% | 15.3 ± 0.515% | 1.03 ± 0.033 | 50.46% | 184 to 186 °C |  |  |  |  |  |  |
| Cc1nc2c(cnn2-c2ccccc2)c(=O)n1N=Cc1ccc(Cl)cc1 [Compound 7b, 5-[(4-Chlorobenzylidene)amino]-6-methyl-1-phenyl-1,5-dihydro-4H-pyrazolo[3,4-d]-pyrimidin-4-one] | 36.3% | 15.2 ± 1.4% | 1.00 ± 0.063 | 53.28% | 195 to 196 °C |  |  |  |  |  |  |
| Cc1nc2c(cnn2-c2ccccc2)c(=O)n1N1C(=O)CSC1c1ccccc1 (centres unmarked) [Compound 8a, 6-Methyl-5-(4-oxo-2-phenyl-1,3-thiazolidin-3-yl)-1-phenyl-1,5-dihydro-4H-pyrazolo[3,4-d]-pyrimidin-4-one] | 37.6% | 12.5 ± 0.376% | 0.98 ± 0.017 | 55.14% | 179 to 181 °C |  |  |  |  |  |  |
| Cc1nc2c(cnn2-c2ccccc2)c(=O)n1N1C(=O)CSC1c1ccc(Cl)cc1 (centres unmarked) [Compound 8b, 5-[2-(4-Chlorophenyl)-4-oxo-1,3-thiazolidin-3-yl]-6-methyl-1-phenyl-1,5-dihydro-4H-pyrazolo[3,4-d]pyrimidin-4-one] | 40.8% | 13 ± 0.702% | 0.93 ± 0.042 | 59.81% | 191 to 195 °C |  |  |  |  |  |  |
| Cc1nc2c(cnn2-c2ccccc2)c(=O)n1NC(=S)Nc1ccccc1 [Compound 9a, 1-(6-Methyl-4-oxo-1-phenyl-1,4-dihydro-5H-pyrazolo[3,4-d]pyrimidin-5-yl)-3-phenylthiourea] | 42.7% | 12.7 ± 0.748% | 0.90 ± 0.058 | 62.63% | 145 to 150 °C |  |  |  |  |  |  |
| Cc1nc2c(cnn2-c2ccccc2)c(=O)n1NC(=S)Nc1ccc(Cl)cc1 [Compound 9b, 1-(4-Chlorophenyl)-3-(6-methyl-4-oxo-1-phenyl-1,4-dihydro-5H-pyrazolo[3,4-d]pyrimidin-5-yl)thiourea] | 47.8% | 15.7 ± 1.03% | 0.82 ± 0.048 | 70.10% | 157 to 160 °C |  |  |  |  |  |  |
| Cc1nc2c(cnn2-c2ccccc2)c(=O)n1N=C1SCC(=O)N1c1ccccc1 [Compound 10a, 6-Methyl-5-[(4-oxo-3-phenyl-1,3-thiazolidin-2-ylidene)amino]-1-phenyl-1,5-dihydro-4H-pyrazolo[3,4-d]pyrimidin-4-one] | 52.2% | 9.5 ± 0.326% | 0.75 ± 0.022 | 76.64% | 264 to 267 °C |  |  |  |  |  |  |
| Cc1nc2c(cnn2-c2ccccc2)c(=O)n1N1C(=O)CC(=O)N(c2ccccc2)C1=S [Compound 12a, 1-(6-Methyl-4-oxo-1-phenyl-1,4-dihydro-5H-pyrazolo[3,4-d]pyrimidin-5-yl)-3-phenyl-2-thioxodihydropyrimidine-4,6(1H,5H)-dione] | 35% | 13.6 ± 0.795% | 1.02 ± 0.060 |  |  |  |  |  |  |  |  |
| Cc1nc2c(cnn2-c2ccccc2)c(=O)n1N1C(=O)CC(=O)N(c2ccc(Cl)cc2)C1=S [Compound 12b, 1-(4-Chlorophenyl)-3-(6-methyl-4-oxo-1-phenyl-1,4-dihydro-5H-pyrazolo[3,4-d]pyrimidin-5-yl)-2-thioxodihydropyrimidine-4,6(1H,5H)-dione] | 45.9% | 19.3 ± 0.905% | 0.85 ± 0.043 | 67.29% | 198 to 201 °C |  |  |  |  |  |  |
| Nn1c(C=O)nc2c(cnn2-c2ccccc2)c1=O [Compound 13, 5-Amino-4-oxo-1-phenyl-4,5-dihydro-1H-pyrazolo[3,4-d]pyrimidine-6-carbaldehyde] | 39.5% | 15.1 ± 1.07% | 0.95 ± 0.043 | 57.95% | 145 to 146 °C |  |  |  |  |  |  |
| CCOC(=O)c1cc2nc3c(cnn3-c3ccccc3)c(=O)n2nc1N [Compound 14, Ethyl 7-amino-4-oxo-1-phenyl-1,4-dihydropyrazolo[3′,4′:4,5]pyrimido[1,2-b]-pyridazine-8-carboxylate] | 44.6% | 11.1 ± 1.14% | 0.87 ± 0.076 | 65.43% | 155 to 156 °C |  |  |  |  |  |  |
| CCOC(=O)c1cc2nc3c(cnn3-c3ccccc3)c(=O)n2[nH]c1=O [Compound 15, Ethyl 4,7-dioxo-1-phenyl-1,4,6,7-tetrahydropyrazolo[3′,4′:4,5]pyrimido[1,2-b]-pyridazine-8-carboxylate] | 41.4% | 16.4 ± 1.02% | 0.92 ± 0.060 | 60.75% | 172 to 173 °C |  |  |  |  |  |  |
| O=c1c2cnn(-c3ccccc3)c2nc2ccc(-c3ccccc3)nn12 [Compound 16, 1,7-Diphenylpyrazolo[3′,4′:4,5]pyrimido[1,2-b]pyridazin-4(1H)-one] | 28.1% | 14.3 ± 0.98% | 1.13 ± 0.067 | 41.13% | 118 to 119 °C |  |  |  |  |  |  |
| COc1ccc2c(c1)c(CC(=O)O)c(C)n2C(=O)c1ccc(Cl)cc1 [Indomethacin, reference compound] | 68.2% | 6.37 ± 0.366% | 0.50 ± 0.026 | 100.0% |  | 100% | 4.4 | 10 | 100.00% | 2.86 | 17.26 |
